For experiment [1], the system named is rats subjected to regional myocardial ischaemia and reperfusion. Briefly: Regional myocardial ischaemia and reperfusion, artesunate dissolved in 10% DMSO. It counts as in vivo, Wistar rats. Particulars: for Infarct size reduction: vs control; for infarct size (percentage of the AAR): control 59.8±3.2%, P<0.05. The protocol: (§1) Rats were anesthetised with thiopentone sodium (Intraval® 120 mg/kg i.p.). Anesthesia was maintained by supplementary injections of thiopentone sodium as required. The trachea was cannulated and the animals were ventilated with a Harvard ventilator (inspiratory oxygen concentration: 30%; 70 strokes/min, tidal volume: 8-10 ml/kg). Body temperature was maintained at 37+1° C. with the aid of a rectal probe thermometer attached to a homeothermic blanket unit (Harvard Apparatus Ltd., Edenbridge, Kent. U.K.). […] The right jugular vein was then cannulated for the administration of drugs and saline. A para-sternal thoracotomy was then performed, using an Electrosurgery device to cauterize the intercostals arteries before cutting through three ribs. The chest was retracted and pericardium dissected from the heart. The left anterior descending (LAD) coronary artery was isolated and a snare occluder was placed around the LAD. The retractor was then removed and the animal was allowed to stabilise for 15 min.
The occluder was tightened at time 0. After 25 min of LAD-occlusion, the occluder was released to allow reperfusion of the previously ischemic myocardium (2 h). Hemodynamic parameters were continuously monitored. Baseline readings were taken prior to treatment, and, myocardial IRI. The pressure rate index (PRI), a relative indicator of myocardial oxygen consumption was calculated as a product of the MAP (mmHg) and HR (beats/minute-bpm) and expressed in mm Hg bpm×10-3.
(§2) At the end of the 2 h reperfusion period, the LAD was re-occluded and 1 ml of Evans Blue dye (2% w/v) was injected into the animal, via the jugular vein. The Evans Blue dye stains the tissue it can circulate through, therefore the non-perfused vascular (occluded) tissue remains un-coloured. Each animal was killed with an over-dose of anaesthetic, the heart excised, and excess dye washed off. […] The ischaemic and non-ischaemic tissue was weighed, and the AAR expressed as a percentage of the left ventricle. The tissue from the AAR was cut into small pieces and incubated with p-nitroblue tetrazolium (NBT, 0.5 mg/ml) for 30 min at 37° C. NBT is a reducing agent that reacts with dehydrogenases present in viable (non-infarcted) tissue to produce a dark blue formazan. Infarcted tissue (non-viable) will not have dehydrogenase activity and will therefore fail to stain. The stained tissue was separated from the infarcted tissue, weighed, and the infarct size expressed as a percentage of the AAR.

The test system is the same in experiment [2]. In words: Regional myocardial ischaemia and reperfusion, vehicle 5% sodium bicarbonate. It counts as in vivo, Wistar rats. The settings on record: for infarct size (percentage of the AAR): control 57.6±2.1%; for area at risk: compared to vehicle treated rats. The protocol:
as §1, with “anaesthetised” for “anesthetised”, “Anaesthesia” for “Anesthesia”, “37±1°” for “37+1°”, “Kent,” for “Kent.”
The occluder was tightened at time 0. After 25 min of LAD-occlusion, the occluder was released to allow reperfusion of the previously ischemic myocardium (2 h). Haemodynamic parameters were continuously monitored. Baseline readings were taken prior to treatment, and, myocardial ischaemia reperfusion (IR) injury. The pressure rate index (PRI), a relative indicator of myocardial oxygen consumption was calculated as a product of the MAP (mmHg) and HR (beats/minute-bpm) and expressed in mm Hg bpm×10^−3.
as §2
Sham-operated rats were subjected to surgical procedure without myocardial ischaemia and reperfusion.

The subject of the next experiment is mice injected with LPS. Briefly: Organ injury and dysfunction in a mouse model of septic shock (LPS). It counts as in vivo, C57BL/6 mice. Particulars: 10 mg/kg, all three treatment groups (i.p. 1 h post-LPS, i.v. 1 h post-LPS, i.p. 30 min pre-LPS). The protocol:
Twenty-six male C57BL/6 mice (Harlan Laboratories, Wyton, UK), weighing 20-30 g were used for this experiment. At time point 0 (t=0 h) mice received either LPS (9 mg/kg in 5 ml/kg 0.9% NaCl) or vehicle (5 ml/kg 0.9% NaCl) intraperitoneally (i.p.). Mice were then sacrificed 16-18 h after the injection of LPS by induction of anaesthesia with ketamine (100 mg/ml)/xylazine (20 mg/ml) solution in a 2:1 ratio and removal of the heart.
At the end of the experiment, 0.7 ml blood was collected from the right carotid artery and decanted into serum gel tubes (Sarstedt, Numbrecht, Germany). The samples were centrifuged (9900 rpm for 3 min) to separate serum from which urea, creatinine and alanine aminotransferase (ALT) were measured within 24 hours (Idexx Laboratories Ltd., West Yorkshire, UK).
Share-operated nice received saline (5 ml/kg i.p.) instead of LPS.

The next experiment deals with burn injury rats. In words: Organ injury and dysfunction induced by burn injury in the rat. It counts as in vivo, Wistar rats. The settings on record: 3 mg/kg i.v. 30 min prior to and 30 min after burn injury. On the procedure:
Twenty-two male Wistar rats (Harlan, Udine, Italy) weighing 300 to 350 g were anaesthetised with sodium pentobarbital (Eutasil™, 60 mg/kg i.p.; Sanofi Veterinária, Algés, Portugal), which was supplemented as required. Anaesthetised rats were shaved (dorsum and abdomen) and placed onto a thermostatically controlled heating mat (Harvard Apparatus Ltd, Kent, U.K.) and body temperature maintained at 37±1° C. by means of a rectal probe attached to a homeothermic blanket. A tracheotomy was performed to maintain airway patency and to facilitate spontaneous respiration. Thirty minutes prior to burn injury, rats were treated with vehicle or drug, as described in section 3.2. To induce burn injury, a 60% third degree skin burn was induced by immersing dorsal shaved skin in 99° C. water for 10 s using a synthetic foam template. The rats were then dried and placed over the heating mat. Rats were sacrificed at 6 hours after burn injury by overdose of the anaesthetic and serum samples obtained for analysis of organ injury and dysfunction.
Sham-operated rats underwent identical surgical procedures but without burn injury (immersed in room temperature water).

Setting [3] is: bolus 10, 3, 1 mg/kg in 10% DMSO upon reperfusion, P>0.05 vs Control.
The mark [4] stands for this setting: bolus 0.3, 1 or 10 mg/kg upon reperfusion, P>0.05 vs Control.

As to `C[C@H]1[C@H](OC(=O)CCC(=O)O)O[C@@H]2O[C@@]3(C)CC[C@H]4[C@H](C)CC[C@@H]1[C@@]24OO3` [artesunate], the Infarct size reduction is on record as 12% in experiment [1] (1 mg/kg i.v. upon reperfusion); 13% in experiment [1] (3 mg/kg i.v. upon reperfusion); 28% in experiment [1] (10 mg/kg i.v. upon reperfusion); 40% in experiment [2] (1 mg/kg i.v. upon reperfusion, vs control). Further, the “infarct size (percentage of the AAR)” value in experiment [1] (1 mg/kg i.v. upon reperfusion) is recorded as 48.0±3.5%; in experiment [1] (3 mg/kg i.v. upon reperfusion), 46.9±2.3%; in experiment [1] (10 mg/kg i.v. bolus upon reperfusion, 25 min ischaemia, 2 h reperfusion), 42.8±1.7%; in experiment [2] (0.3 mg/kg i.v. bolus upon reperfusion), 44.0±2.61%; in experiment [2] (1 mg/kg i.v. upon reperfusion, P<0.05), 42.6±1.1%. The “fall in mean arterial blood pressure caused by myocardial ischaemia and reperfusion” value in experiment [1] (setting [3]) and in experiment [2] (setting [4]) was “did not attenuate” each time. Further, the heart rate result in experiment [1] (setting [3]) and in experiment [2] (setting [4]) was “did not have a significant effect” each time. The area at risk entry in experiment [2] (0.3 mg/kg), in experiment [2] (1 mg/kg) and in experiment [2] (10 mg/kg) was “no significant effect” each time. Moreover, in experiment [2] (10 mg/kg i.v. upon reperfusion, P>0.05), the infarct size result is given as “no significant effect”. In addition, the “rise in serum ALT” value in the experiment on mice injected with LPS and in the experiment with burn injury rats (P>0.05) was “no significant effect” in each case. Further, the “rise in serum creatinine” value is reported as “no significant effect” in the experiment with mice injected with LPS (P>0.05) and “significantly attenuated” in the experiment with burn injury rats (6 h after burn, P<0.05). The “rise in serum urea” value in the experiment on mice injected with LPS (P>0.05) is on record as “no significant effect”; in the experiment with burn injury rats (6 h after burn, P<0.05), “significantly attenuated”. In addition, the “rise in serum AST” value in the experiment on burn injury rats (P>0.05) is reported as “no significant effect”.

The values are drawn from US9949948B2, “Artemisinin and its derivatives for use in the treatment of trauma haemorrhage and associated conditions” (Queen Mary University of London, priority 2011, dated 2018).
